Data on three compounds can be found in PubChem BioAssay (NCI).

Common to all, as to experiment: DTP human tumour cell line panel, 48 h
For test [1], the system named is CAKI-1 renal.
For test [2], the system named is CCRF-CEM leukemia.
Test [3] has as its system HCT-15 colon.
The subject of test [4] is KM12 colon.
The subject of test [5] is NCI-H23 lung.
Test [6] deals with NCI-H522 lung.
Test [7] relates to OVCAR-3 ovarian.
In test [8] the test system is OVCAR-4 ovarian.
Test [9] deals with OVCAR-8 ovarian.
For test [10], the system named is PC-3 prostate.
The test system of test [11] is RPMI-8226 leukemia.
For test [12], the system named is SK-MEL-28 melanoma.
Test [13] concerns SK-MEL-5 melanoma.
Test [14] concerns SK-OV-3 ovarian.
The subject of test [15] is SN12C renal.
In test [16] the test system is SNB-19 CNS.
Test [17] has as its system T-47D breast.
In test [18] the test system is U251 CNS.
In test [19] the test system is UACC-62 melanoma.
Test [20] concerns UO-31 renal.

Structures are written as SMILES.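 1) Cells in 96-well plates. 2) Compound, 48 h, 5 concentrations. 3) Linear interpolation between surrounding doses. 4) Unreached endpoint = highest concentration. At the TGI there is no net growth.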

Usually TGI stands for the concentration giving total growth inhibition. Higher therefore signals lower sensitivity of the cells.

For `C[C@H]1S[C@@H](c2ccc(Cl)cc2Cl)N(NC(=O)c2ccncc2)C1=O`, the TGI in test [1], in test [2], in test [3], in test [4], in [5] and in [6] was over 100 µM each time. The TGI in test [7], in [8], in [9], in [10], in [11] and in test [12] was over 100 µM throughout. Besides, the TGI in test [13], in test [14], in test [15], in test [16], in [17] and in test [18] was over 100 µM throughout. The TGI in test [19] and in test [20] was over 100 µM in each case.
`COC1/C=C/C(C)C(O)CC(O)/C=C/C(C)C(C(C)C(OC)C(C)CCC(=O)C(C)C(C/C=C/N(C)C=O)OC)OC(=O)/C=C/C=C(\C)CC(OC)CC2=CC(=O)O[C@@H](C(C)C(OC)C1)[C@H]2O` (stereo not given in full): the TGI in test [1] is 0.0192 µM; in test [2], 2.98 µM; in test [3], 0.0893 µM; in test [4], 1.15 µM; in [5], 0.0437 µM; in [6] it was 0.093 µM. Moreover, the TGI in test [7] was found to be 0.0106 µM; in [8] it was 1.54 µM; in test [9], 0.475 µM; in [10], 0.131 µM; in test [11], 0.124 µM; in test [12] it was 0.155 µM. In addition, the TGI in test [13] is under 0.005 µM; in [14], 0.108 µM; in test [15], 1.78 µM; in test [16] it was 0.155 µM; in [17], 1.28 µM; in [18], 0.102 µM. Besides, the figures for the TGI in test [19] and in test [20] were 0.019 µM and 0.0648 µM, respectively.
Consider `COc1nc(Cl)nc(N[C@H](C)c2c3ccccc3cc3ccccc23)n1`, for which the TGI in test [1] was 25.9 µM; in test [2], 29.6 µM; in [3], 27 µM; in test [4], 26.9 µM; in test [5], 31.8 µM; in [6] it was 21.3 µM. The TGI in [7] is 23.5 µM; in test [8] it was 13.7 µM; in [9], 28.4 µM; in [10], 31.5 µM; in [11], 21.1 µM; in test [12] it was 10.2 µM. Moreover, the TGI in test [13] turned out to be 19.5 µM; in test [14], 29.3 µM; in [15], 17.8 µM; in [16], 31.1 µM; in test [17], 9.08 µM; in test [18], 31.9 µM. For the same compound, the TGI came to 13.8 µM in [19] and 31.8 µM in [20].
